For assay [1], the target named is Rho-associated protein kinase 1 (Homo sapiens, UniProt Q13464). Description: Inhibition of ROCK1 (unknown origin).
Assay [2] has as its target Rho-associated protein kinase 2 (Homo sapiens, UniProt O75116). Description: Inhibition of ROCK2 (unknown origin).
For a further assay, the species on record is Homo sapiens. In words: Selectivity ratio of IC50 for inhibition of ROCK2 (unknown origin) to IC50 for inhibition of ROCK1 (unknown origin).

Molecules are shown by their SMILES.

Chain of Rho-associated protein kinase 2 (O75116 whole entry): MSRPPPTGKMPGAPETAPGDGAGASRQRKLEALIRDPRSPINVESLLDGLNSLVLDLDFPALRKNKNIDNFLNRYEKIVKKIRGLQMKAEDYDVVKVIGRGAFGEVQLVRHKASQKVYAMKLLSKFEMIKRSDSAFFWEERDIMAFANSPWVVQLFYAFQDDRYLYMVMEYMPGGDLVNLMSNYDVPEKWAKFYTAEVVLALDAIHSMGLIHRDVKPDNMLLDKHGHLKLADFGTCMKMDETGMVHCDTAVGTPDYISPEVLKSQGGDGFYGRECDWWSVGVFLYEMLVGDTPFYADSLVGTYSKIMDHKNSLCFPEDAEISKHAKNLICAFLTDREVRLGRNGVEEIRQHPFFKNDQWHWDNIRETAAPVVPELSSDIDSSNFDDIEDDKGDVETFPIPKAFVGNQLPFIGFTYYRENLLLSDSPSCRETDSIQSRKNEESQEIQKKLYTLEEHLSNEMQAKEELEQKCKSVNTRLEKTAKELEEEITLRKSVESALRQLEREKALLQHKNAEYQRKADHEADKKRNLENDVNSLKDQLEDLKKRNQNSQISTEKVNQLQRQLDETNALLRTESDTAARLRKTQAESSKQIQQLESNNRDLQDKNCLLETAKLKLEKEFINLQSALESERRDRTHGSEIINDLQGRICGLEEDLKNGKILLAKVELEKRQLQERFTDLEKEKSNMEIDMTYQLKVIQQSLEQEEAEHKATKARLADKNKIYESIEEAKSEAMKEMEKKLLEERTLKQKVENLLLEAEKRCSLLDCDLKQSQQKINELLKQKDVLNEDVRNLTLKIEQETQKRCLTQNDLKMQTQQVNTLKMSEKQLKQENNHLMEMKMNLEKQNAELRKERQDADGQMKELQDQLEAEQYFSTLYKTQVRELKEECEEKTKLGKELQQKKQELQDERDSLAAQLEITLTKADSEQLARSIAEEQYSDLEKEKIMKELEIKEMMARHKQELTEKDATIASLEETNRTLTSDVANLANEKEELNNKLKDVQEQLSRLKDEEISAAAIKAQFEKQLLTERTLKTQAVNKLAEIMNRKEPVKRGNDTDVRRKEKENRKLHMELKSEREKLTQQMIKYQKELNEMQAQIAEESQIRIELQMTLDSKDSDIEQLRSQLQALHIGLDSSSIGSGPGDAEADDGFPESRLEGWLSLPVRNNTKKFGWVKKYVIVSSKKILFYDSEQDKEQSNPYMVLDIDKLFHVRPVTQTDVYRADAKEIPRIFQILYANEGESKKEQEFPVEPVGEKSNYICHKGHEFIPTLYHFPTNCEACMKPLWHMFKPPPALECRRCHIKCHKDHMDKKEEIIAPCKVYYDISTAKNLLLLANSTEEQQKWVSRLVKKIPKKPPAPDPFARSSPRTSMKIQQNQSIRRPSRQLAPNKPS
Chain of Rho-associated protein kinase 1 (Q13464 whole entry): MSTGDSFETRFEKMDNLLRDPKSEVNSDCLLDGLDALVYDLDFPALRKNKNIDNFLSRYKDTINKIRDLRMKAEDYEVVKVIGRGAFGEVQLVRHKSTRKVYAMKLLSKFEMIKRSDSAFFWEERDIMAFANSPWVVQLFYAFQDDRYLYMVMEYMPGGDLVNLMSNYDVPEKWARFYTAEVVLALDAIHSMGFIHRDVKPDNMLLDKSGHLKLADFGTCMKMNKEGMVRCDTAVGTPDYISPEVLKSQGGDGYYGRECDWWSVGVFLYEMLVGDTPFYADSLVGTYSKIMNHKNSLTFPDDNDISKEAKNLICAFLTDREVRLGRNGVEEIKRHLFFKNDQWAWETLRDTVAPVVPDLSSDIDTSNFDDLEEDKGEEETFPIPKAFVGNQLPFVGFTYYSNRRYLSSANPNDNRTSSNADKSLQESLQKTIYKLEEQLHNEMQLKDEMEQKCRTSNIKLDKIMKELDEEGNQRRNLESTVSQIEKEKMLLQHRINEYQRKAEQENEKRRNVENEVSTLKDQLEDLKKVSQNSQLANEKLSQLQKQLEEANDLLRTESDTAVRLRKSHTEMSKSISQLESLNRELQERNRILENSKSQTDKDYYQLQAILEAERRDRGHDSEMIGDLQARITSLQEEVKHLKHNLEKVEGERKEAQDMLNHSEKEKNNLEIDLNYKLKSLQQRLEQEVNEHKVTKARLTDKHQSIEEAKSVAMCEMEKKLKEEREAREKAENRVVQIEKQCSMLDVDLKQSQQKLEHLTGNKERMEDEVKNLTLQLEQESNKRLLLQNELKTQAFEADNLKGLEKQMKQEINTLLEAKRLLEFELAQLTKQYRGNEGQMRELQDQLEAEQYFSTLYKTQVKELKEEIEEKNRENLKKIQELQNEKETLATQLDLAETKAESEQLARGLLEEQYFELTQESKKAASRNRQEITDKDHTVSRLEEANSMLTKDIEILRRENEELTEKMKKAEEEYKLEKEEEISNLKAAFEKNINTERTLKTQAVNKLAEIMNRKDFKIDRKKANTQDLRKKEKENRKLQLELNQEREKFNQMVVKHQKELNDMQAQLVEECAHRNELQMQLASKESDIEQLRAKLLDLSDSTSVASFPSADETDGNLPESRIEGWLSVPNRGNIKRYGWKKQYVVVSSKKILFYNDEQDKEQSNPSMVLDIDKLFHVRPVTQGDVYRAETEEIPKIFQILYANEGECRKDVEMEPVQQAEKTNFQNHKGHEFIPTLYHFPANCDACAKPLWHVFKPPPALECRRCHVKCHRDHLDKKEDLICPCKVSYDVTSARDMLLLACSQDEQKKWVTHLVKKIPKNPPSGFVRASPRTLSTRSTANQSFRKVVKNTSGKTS

In general, IC50 refers to the concentration that inhibits the measured activity by half. Low readings indicate greater potency in that assay, high ones weaker potency in that assay. `O=C1N(c2ccc(-c3n[nH]c(=O)c4ccccc34)cc2)CCN1c1cccnc1`: the results for the IC50 in assay [1] and in assay [2] were 0.2 µM and 0.019 µM, respectively.

`Cc1nc2ccc(NC3CCN(c4ccc(-c5n[nH]c(=O)c6ccccc56)cc4)C3=O)cc2s1` (centres undefined): the concentration for half-maximal inhibition (IC50) in assay [1] was 0.115 µM; in assay [2] it was 0.0074 µM.

Consider `O=C1N(Cc2ccccc2)CCN1c1ccc(-c2n[nH]c(=O)c3ccccc23)cc1`, for which the half-inhibitory concentration (IC50) in assay [1] is above 2 µM; in assay [2], 0.056 µM.

With `COc1cccc(NC2CCN(c3ccc(-c4n[nH]c(=O)c5ccccc45)cc3)C2=O)c1` (centres undefined), the 50% inhibitory concentration (IC50) in assay [1] amounted to 1.05 µM; in assay [2], 0.023 µM.

Turning to `O=C1C(NCc2ccccc2)CCN1c1ccc(-c2n[nH]c(=O)c3ccccc23)cc1` (centres undefined), the IC50 in assay [1] is above 2 µM; in assay [2], 1.4 µM.

As to `O=C1C(c2ccccc2)CCN1c1ccc(-c2n[nH]c(=O)c3ccccc23)cc1` (centres undefined), the IC50 is above 2 µM in assay [1] and 0.35 µM in assay [2].

Consider `CC(C)Oc1cccc(NC2CCN(c3ccc(-c4n[nH]c(=O)c5ccccc45)cc3)C2=O)c1` (centres undefined), for which the IC50 was determined as 0.38 µM in assay [1] and 0.018 µM in assay [2].

With `O=C(Cc1ccc(-c2n[nH]c(=O)c3ccccc23)cc1)N1CCc2ccccc21`, the results for the IC50 in assay [1] and in assay [2] were 0.34 µM and 0.007 µM, respectively.

As to `O=C1C(Oc2cccc(OC(F)(F)F)c2)CCN1c1ccc(-c2n[nH]c(=O)c3ccccc23)cc1` (centres undefined), the half-inhibitory concentration (IC50) in assay [1] worked out at 0.1 µM; in assay [2] it was 0.0063 µM.

In assay [2], `O=C(Nc1ccc(-c2n[nH]c(=O)c3ccccc23)cc1)N1CCc2ccccc21` yielded an IC50 of 0.001 µM. Besides, in the assay listed under Homo sapiens, the Ratio IC50 came out at 20.

Turning to `O=C1N(c2ccccc2)CCN1c1ccc(-c2n[nH]c(=O)c3ccccc23)cc1`, the IC50 in assay [1] amounted to 0.24 µM; in assay [2], 0.0052 µM.

In the case of `O=C1C(c2ccc(-c3n[nH]c(=O)c4ccccc34)cc2)CCN1c1ccccc1` (centres undefined), the IC50 is above 2 µM in assay [1] and 0.37 µM in assay [2].

Take `O=C1C(Nc2cccc(OC(F)F)c2)CCN1c1ccc(-c2n[nH]c(=O)c3ccccc23)cc1` (stereo in doubt; 22): the results for the IC50 in assay [1] and in assay [2] were 0.2 µM and 0.0025 µM, respectively.

As to `O=C1C(Nc2cccc(OC(F)F)c2)CCN1c1ccc(-c2n[nH]c(=O)c3ccccc23)cc1` (stereo in doubt; 21), the 50% inhibitory concentration (IC50) in assay [1] is 0.99 µM; in assay [2], 0.015 µM.

Regarding `O=C1C(Nc2cccc(OC(F)F)c2)CCN1c1ccc(-c2n[nH]c(=O)c3ccccc23)cc1` (racemic), the IC50 in assay [1] worked out at 0.33 µM; in assay [2] it was 0.002 µM.

For the molecule `O=c1[nH]nc(-c2ccc(-n3ncn(Cc4ccccc4)c3=O)cc2)c2ccccc12`, the IC50 in assay [1] is above 2 µM; in assay [2] it was 0.3 µM.

For the molecule `O=C1C(Nc2cccc(OC(F)(F)F)c2)CCN1c1ccc(-c2n[nH]c(=O)c3ccccc23)cc1` (centres undefined), the IC50 in assay [1] was determined as 0.27 µM; in assay [2] it was 0.0056 µM.

On to `O=C1C(Nc2ccccc2)CCN1c1ccc(-c2n[nH]c(=O)c3ccccc23)cc1` (centres undefined), for which the IC50 is 0.95 µM in assay [1] and 0.034 µM in assay [2].

Turning to `CS(=O)(=O)c1cccc(NC2CCN(c3ccc(-c4n[nH]c(=O)c5ccccc45)cc3)C2=O)c1` (centres undefined), the half-inhibitory concentration (IC50) in assay [1] came out at 0.43 µM; in assay [2], 0.016 µM.

For `O=C1OC(c2ccccc2)CN1c1ccc(-c2n[nH]c(=O)c3ccccc23)cc1` (centres undefined), the IC50 in assay [1] came to 0.23 µM; in assay [2], 0.06 µM.

Turning to `O=C1CC(c2ccccc2)CN1c1ccc(-c2n[nH]c(=O)c3ccccc23)cc1` (centres undefined), the IC50 in assay [1] was determined as 1.52 µM; in assay [2], 0.49 µM.

For the molecule `O=C1C(NC2CCCC2)CCN1c1ccc(-c2n[nH]c(=O)c3ccccc23)cc1` (centres undefined), the IC50 in assay [1] is above 2 µM; in assay [2] it was 1.77 µM.
